Results reported in US7045526B2, “Substituted 4-amino-2-aryl-tetrahydroquinazolines, their preparation, their use and pharmaceutical preparations comprising them” (Sanofi-Aventis Deutschland GmbH, priority 1999, dated 2006).

Target: T1, soluble guanylate cyclase (sGC) (Bos taurus, UniProt P16068+P19687)
T1 construct: The sGC employed had been isolated from bovine lung; from tissue; host or cells: bovine lung
T1 sequence (P16068 1-619): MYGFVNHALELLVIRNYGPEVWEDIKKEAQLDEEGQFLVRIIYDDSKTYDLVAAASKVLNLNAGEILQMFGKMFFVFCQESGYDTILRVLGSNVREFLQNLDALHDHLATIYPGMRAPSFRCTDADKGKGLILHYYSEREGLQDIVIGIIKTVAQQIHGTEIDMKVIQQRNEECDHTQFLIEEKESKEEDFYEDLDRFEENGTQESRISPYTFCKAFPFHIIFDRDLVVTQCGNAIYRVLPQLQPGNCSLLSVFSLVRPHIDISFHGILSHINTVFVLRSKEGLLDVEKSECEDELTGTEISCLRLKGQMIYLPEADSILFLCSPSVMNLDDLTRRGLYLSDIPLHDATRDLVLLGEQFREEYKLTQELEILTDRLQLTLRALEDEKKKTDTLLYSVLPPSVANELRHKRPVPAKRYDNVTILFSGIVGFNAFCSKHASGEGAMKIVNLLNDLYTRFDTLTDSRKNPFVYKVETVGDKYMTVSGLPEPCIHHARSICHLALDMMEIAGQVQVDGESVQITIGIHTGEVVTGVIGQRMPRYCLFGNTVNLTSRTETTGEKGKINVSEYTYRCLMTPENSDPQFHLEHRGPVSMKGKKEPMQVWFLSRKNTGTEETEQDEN
T1 sequence (P19687 1-691): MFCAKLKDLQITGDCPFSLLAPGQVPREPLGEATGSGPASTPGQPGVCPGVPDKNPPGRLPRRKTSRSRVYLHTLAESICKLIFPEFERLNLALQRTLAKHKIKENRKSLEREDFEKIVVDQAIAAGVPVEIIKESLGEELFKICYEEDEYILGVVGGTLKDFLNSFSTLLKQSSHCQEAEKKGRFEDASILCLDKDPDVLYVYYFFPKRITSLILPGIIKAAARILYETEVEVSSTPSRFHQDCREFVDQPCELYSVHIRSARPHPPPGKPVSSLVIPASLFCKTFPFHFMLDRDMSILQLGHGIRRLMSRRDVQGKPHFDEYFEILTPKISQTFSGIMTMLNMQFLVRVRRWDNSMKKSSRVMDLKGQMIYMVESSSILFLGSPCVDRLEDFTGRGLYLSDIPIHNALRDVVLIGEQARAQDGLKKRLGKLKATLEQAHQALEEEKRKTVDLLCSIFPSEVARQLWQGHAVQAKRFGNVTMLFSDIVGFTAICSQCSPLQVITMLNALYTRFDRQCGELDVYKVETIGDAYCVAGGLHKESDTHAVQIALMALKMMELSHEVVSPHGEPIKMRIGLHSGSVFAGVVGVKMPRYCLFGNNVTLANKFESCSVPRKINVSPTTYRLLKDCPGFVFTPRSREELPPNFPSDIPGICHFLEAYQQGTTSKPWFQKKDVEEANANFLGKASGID
Assay: Activation of soluble guanylate cyclase (cGMP enzyme immunoassay)
Assay type: biochemical
Conditions: test substance 50 μM; sGC isolated from bovine lung; 37° C., 15 to 20 minutes; [cGMP]test substance/[cGMP]control (basal enzyme activity)
Protocol: Activation of Soluble Guanylate Cyclase
The activation of soluble guanylate cyclase (sGC), which catalyzes the conversion of guanosine triphosphate (GTP) to cyclic guanosine monophosphate (cGMP) and pyrophosphate, by the compounds according to the invention was quantified with the aid of an enzyme immunoassay (EIA) from Amersham. For this, the test substances were first incubated with sGC in microtiter plates and then the quantity of the resulting cGMP was determined.
The sGC employed had been isolated from bovine lung (see Methods in Enzymology, Volume 195, p. 377). The test solutions (100 μl per well) contained 50 mM triethanolamine (TEA) buffer (pH 7.5), 3 mM MgCl2, 3 mM reduced glutathione (GSH), 0.1 mM GTP, 1 mM 3-isobutyl-1-methylxanthine (IBMX), suitably diluted enzyme solution and the test substance or, in the control experiments, solvent. […] The absorption of the samples was measured at 450 nm (reference wavelength 620 nm) in a microtiter plate reading apparatus. The cGMP concentration was determined by means of a calibration curve, which was obtained under the same experimental conditions. The activation of the sGC by a test substance is given as n-fold stimulation of the basal enzyme activity which was found in the control experiments (with solvent instead of test substance), calculated according to the formula: n-fold stimulation=[cGMP]test substance/[cGMP]control.

n-fold stimulation (at c = 50 μM): 28 n-fold
SMILES: CS(=O)(=O)O.O[C@H]1CC[C@H](Nc2nc(-c3ccc(Cl)cc3)nc3c2CCCC3)CC1 [Example 26, 2-(4-Chlorophenyl)-4-(trans-4-hydroxycyclohexylamino)-5,6,7,8-tetrahydroquinazoline methanesulfonic acid salt]
